In paper PMC5756575, “In Vitro Biotransformation, Safety, and Chemopreventive Action of Novel 8-Methoxy-Purine-2,6-Dione Derivatives” (Applied Biochemistry and Biotechnology, 2017):
Read-outs that look alike come from different tables or passages of the source.

Legend:
[1] = DPPH radical scavenging assay; format: biochemical; conditions: DPPH 250 μM, compound at 250 μM, 30 min, 517 nm
Experimental: The capacity of selected 8-methoxy-purine-2,6-dione derivatives to scavenge stable free radical DPPH was assessed. A blank and a triplicate of 10 different concentrations of each compound or of each positive control (gallic and ascorbic acids) were evaluated in the experiment. Aforesaid concentrations of compounds were obtained by dilution from a 1000 μM stock solution in methanol. One hundred microliters of DPPH stock solution were added to each well; later, 100 μL of the corresponding compound dilution were added. Consequently, the final concentration of DPPH radical was 250 μM, whereas the final concentrations of the tested compounds or positive controls were 500, 375, 250, 125, 62.5, 50, 37.5, 25, 12.5, and 6.25 μM. Afterwards, the 96-plate was wrapped with aluminum and stored in the dark 30 min prior to the spectrophotometric measurement at a 517-nm wavelength. The obtained absorbances were used to calculate the percentage of radical scavenged by the action of a compound or of a positive control at each concentration using a formula 100 × (A 0 − A m)/A 0. In this equation A m is the average absorbance of the three triplicates measured at the corresponding concentration and A 0 is the average absorbance of DPPH radical in the absence of the tested substance. Knowing inhibition data at the different concentrations, IC50 was calculated when applicable.

mice [2] = test system: mice; set-up: method as in PMID 25443727, PMID 25560569; conditions: writhing syndrome test in mice; cited from earlier work
mice [3] = test system: mice; set-up: method as in PMID 25443727, PMID 25560569; conditions: formalin test in mice; cited from earlier work

| Structure (SMILES) | maximum radical scavenging percentage observed [1] | fold higher activity than acetylsalicylic acid (mice [2]) | fold higher activity than acetylsalicylic acid (mice [3]) |
| --- | --- | --- | --- |
| COc1nc2c(c(=O)n(C)c(=O)n2C)n1CCCC(=O)NCc1ccccc1 [Compound 3, N-benzyl-4-(8-methoxy-1,3-dimethyl-2,6-dioxo-purin-7-yl)butanamide] | 6.56% |  |  |
| COc1nc2c(c(=O)n(C)c(=O)n2C)n1CCCC(=O)N1CCN(c2ccccc2)CC1 [Compound 4, 8-methoxy-1,3-dimethyl-7-[4-oxo-4-(4-phenylpiperazin-1-yl)butyl]purine-2,6-dione] |  | 23 fold | 36 fold |
